{"source": "paper PMC9971056", "about": "(JHEP Reports, 2022)", "test_system": "HepG2 cells", "test": "LD50 in HepG2 cells", "assay_type": "cell-based, Human"}
{"molecule": "CC1(C)CC[C@]2(C(=O)O)CC[C@]3(C)[C@H](C(=O)C=C4[C@@]5(C)C=C(C#N)C(=O)C(C)(C)[C@@H]5CC[C@]43C)[C@@H]2C1", "note": "[bardoxolone]", "values": [{"measurement": "LD50 in HepG2 cells", "result": "< 1", "unit": "µM"}]}
